According to US7138361B2, “Herbicidal heterocycles” (E. I. du Pont de Nemours and Company, priority 2000, dated 2006):

Columns and labels:
Assay type in all cases: in vivo
[1] = test system: Surinam grass (Brachiaria decumbens); assay: Test B preemergence
Outline: (§1)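 Post-treatment, species sat 13–15 days under greenhouse conditions before visual scoring against controls, 0 (no effect) through 100 (complete control). Application preemergence to sown seeds or postemergence at 1- to 4-leaf stage, using a non-phytotoxic solvent/surfactant formulation.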

[2] = test system: cocklebur (Xanthium strumarium); assay: Test B preemergence
Outline: as §1

corn (Zea mays) [3] = assay: Test B preemergence
Outline: as §1

[4] = test system: crabgrass (Digitaria sanguinalis); assay: Test B preemergence
Outline: as §1

[5] = test system: giant foxtail (Setaria faberii); assay: Test B preemergence
Outline: as §1

[6] = test system: lambsquarters (Chenopodium album); assay: Test B preemergence
Outline: as §1

[7] = test system: morning glory (Ipomoea hederacea); assay: Test B preemergence
Outline: as §1

[8] = test system: pigweed (Amaranthus retroflexus); assay: Test B preemergence
Outline: as §1

rice (Oryza saliva) = assay: Test B preemergence
Outline: as §1

[9] = test system: Surinam grass (Brachiaria decumbens); assay: Test C postemergence
Outline: (§2)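 Preemergence: seeds sown then treated. Postemergence: plants 2–18 cm, 1- to 4-leaf. Both with surfactant-containing solvent formulation; visual injury scored 0–100 after 12–14 d.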

[10] = test system: bermudagrass (Cynodon dactylon); assay: Test C postemergence
Outline: as §2

[11] = test system: cocklebur (Xanthium strumarium); assay: Test C postemergence
Outline: as §2

corn (Zea mays) [12] = assay: Test C postemergence
Outline: as §2

[13] = test system: crabgrass (Digitaria sanguinalis); assay: Test C postemergence
Outline: as §2

[14] = test system: giant foxtail (Setaria faberii); assay: Test C postemergence
Outline: as §2

[15] = test system: goosegrass (Eleusine indica); assay: Test C postemergence
Outline: as §2

kochia (Kochia scoparia) = assay: Test C postemergence
Outline: as §2

[16] = test system: morningglory (Ipomoea hederacea); assay: Test C postemergence
Outline: as §2

[17] = test system: pigweed (Amaranthus retroflexus); assay: Test C postemergence
Outline: as §2

soybean (Glycine max) = assay: Test C postemergence
Outline: as §2

[18] = test system: velvetleaf (Abutilon theophrasti); assay: Test C postemergence
Outline: as §2

[19] = test system: yellow nutsedge (Cyperus esculentus); assay: Test C postemergence
Outline: as §2

Nightshade = assay: Test C preemergence; conditions: Rate 500 g/ha, visual evaluation after 12 to 14 days
[20] = Preemergence, Rate 500 g/ha, scale 0 to 100, 0 no effect, 100 complete control
[21] = preemergence, Rate 125 g/ha, scale of 0 to 100 where 0 is no effect and 100 is complete control, 13 to 15 days
[22] = Rate 125 g/ha, scale 0 to 100, 0 no effect, 100 complete control
[23] = Rate 250 g/ha, scale 0 to 100 (0 no effect, 100 complete control)
[24] = Rate 500 g/ha, scale 0 to 100 (0 no effect, 100 complete control)

SMILES: CCC(CC)c1ccn(C2CCN(c3ccc(Br)c(OC)c3)C2=O)n1 (stereo not shown) [Compound 143]
- Plant response rating, Surinam grass [1, 20]: 90
- Plant response rating, Surinam grass [1, 21]: 80
- Plant response rating, Cocklebur [2, 20]: 30
- Plant response rating, Cocklebur [2, 21]: 0
- Plant response rating, Corn (corn (Zea mays) [3]; [20]): 20
- Plant response rating, Corn (corn (Zea mays) [3]; [21]): 0
- Plant response rating, Crabgrass [4, 20]: 100
- Plant response rating, Crabgrass [4, 21]: 100
- Plant response rating, Foxtail, Giant [5, 20]: 100
- Plant response rating, Foxtail, Giant [5, 21]: 100
- Plant response rating, Lambsquarters [6, 20]: 100
- Plant response rating, Lambsquarters [6, 21]: 100
- Plant response rating, Morningglory [7, 20]: 70
- Plant response rating, Morningglory [7, 21]: 20
- Plant response rating, Pigweed [8, 20]: 100
- Plant response rating, Pigweed [8, 21]: 100
- Plant response rating, Rice (rice (Oryza saliva); [20]): 30
- Plant response rating, Rice (rice (Oryza saliva); [21]): 0
- Plant response rating, Surinam grass ([9]; Rate 62 g/ha, scale 0 to 100): 20
- Plant response rating, Surinam grass [9, 22]: 20
- Plant response rating, Surinam grass [9, 23]: 50
- Plant response rating, Surinam grass [9, 24]: 70
- Plant response rating, Bermudagrass ([10]; Rate 62 g/ha, scale 0 to 100): 20
- Plant response rating, Bermudagrass [10, 22]: 40
- Plant response rating, Bermudagrass [10, 23]: 70
- Plant response rating, Bermudagrass [10, 24]: 80
- Plant response rating, Cocklebur ([11]; Rate 62 g/ha, scale 0 to 100): 20
- Plant response rating, Cocklebur [11, 23]: 90
- Plant response rating, Cocklebur [11, 24]: 90
- Plant response rating, Corn (corn (Zea mays) [12]; Rate 62 g/ha, scale 0 to 100): 0
- Plant response rating, Corn (corn (Zea mays) [12]; [23]): 0
- Plant response rating, Corn (corn (Zea mays) [12]; [24]): 30
- Plant response rating, Corn (corn (Zea mays) [12]; scale 0 to 100): 0
- Plant response rating, Crabgrass ([13]; Rate 62 g/ha, scale 0 to 100): 40
- Plant response rating, Crabgrass [13, 23]: 70
- Plant response rating, Crabgrass [13, 24]: 70
- Plant response rating, Foxtail, Giant ([14]; Rate 62 g/ha, scale 0 to 100): 30
- Plant response rating, Foxtail, Giant [14, 23]: 80
- Plant response rating, Foxtail, Giant [14, 24]: 90
- Plant response rating, Goosegrass ([15]; Rate 62 g/ha, scale 0 to 100): 30
- Plant response rating, Goosegrass [15, 23]: 60
- Plant response rating, Goosegrass [15, 24]: 70
- Plant response rating, Kochia (kochia (Kochia scoparia); Rate 62 g/ha, scale 0 to 100): 40
- Plant response rating, Kochia (kochia (Kochia scoparia); [23]): 90
- Plant response rating, Kochia (kochia (Kochia scoparia); [24]): 90
- Plant response rating, Morningglory ([16]; Rate 62 g/ha, scale 0 to 100): 90
- Plant response rating, Morningglory [16, 23]: 100
- Plant response rating, Morningglory [16, 24]: 100
- Plant response rating, Pigweed ([17]; Rate 62 g/ha, scale 0 to 100): 70
- Plant response rating, Pigweed [17, 23]: 70
- Plant response rating, Pigweed [17, 24]: 90
- Plant response rating, Soybean (soybean (Glycine max); Rate 62 g/ha, scale 0 to 100): 60
- Plant response rating, Soybean (soybean (Glycine max); [23]): 100
- Plant response rating, Soybean (soybean (Glycine max); [24]): 100
- Plant response rating, Velvetleaf ([18]; Rate 62 g/ha, scale 0 to 100): 40
- Plant response rating, Velvetleaf [18, 23]: 80
- Plant response rating, Velvetleaf [18, 24]: 90
- Plant response rating, Velvetleaf ([18]; scale 0 to 100): 40
- Plant response rating, Nutsedge ([19]; Rate 62 g/ha, scale 0 to 100): 0
- Plant response rating, Nutsedge [19, 23]: 0
- Plant response rating, Nutsedge [19, 24]: 0
- Plant response rating (0 to 100), Nightshade (Nightshade): 100

SMILES: COc1cc(N2CCC(n3ccc(C(C)(C)C)n3)C2=O)ccc1Br (stereo not shown) [Compound 141]
- Plant response rating, Surinam grass [1, 20]: 100
- Plant response rating, Surinam grass [1, 21]: 100
- Plant response rating, Cocklebur [2, 20]: 100
- Plant response rating, Cocklebur [2, 21]: 70
- Plant response rating, Corn (corn (Zea mays) [3]; [20]): 20
- Plant response rating, Corn (corn (Zea mays) [3]; [21]): 0
- Plant response rating, Crabgrass [4, 20]: 100
- Plant response rating, Crabgrass [4, 21]: 100
- Plant response rating, Foxtail, Giant [5, 20]: 100
- Plant response rating, Foxtail, Giant [5, 21]: 100
- Plant response rating, Lambsquarters [6, 20]: 100
- Plant response rating, Lambsquarters [6, 21]: 100
- Plant response rating, Morningglory [7, 20]: 100
- Plant response rating, Morningglory [7, 21]: 90
- Plant response rating, Pigweed [8, 20]: 100
- Plant response rating, Pigweed [8, 21]: 100
- Plant response rating, Rice (rice (Oryza saliva); [20]): 50
- Plant response rating, Rice (rice (Oryza saliva); [21]): 30
- Plant response rating, Surinam grass ([9]; Rate 62 g/ha, scale 0 to 100): 20
- Plant response rating, Surinam grass [9, 22]: 40
- Plant response rating, Surinam grass [9, 23]: 60
- Plant response rating, Surinam grass [9, 24]: 60
- Plant response rating, Bermudagrass ([10]; Rate 62 g/ha, scale 0 to 100): 40
- Plant response rating, Bermudagrass [10, 22]: 60
- Plant response rating, Bermudagrass [10, 23]: 60
- Plant response rating, Bermudagrass [10, 24]: 100
- Plant response rating, Cocklebur ([11]; Rate 62 g/ha, scale 0 to 100): 70
- Plant response rating, Cocklebur [11, 23]: 70
- Plant response rating, Cocklebur [11, 24]: 100
- Plant response rating, Corn (corn (Zea mays) [12]; Rate 62 g/ha, scale 0 to 100): 0
- Plant response rating, Corn (corn (Zea mays) [12]; [23]): 0
- Plant response rating, Corn (corn (Zea mays) [12]; [24]): 0
- Plant response rating, Corn (corn (Zea mays) [12]; scale 0 to 100): 0
- Plant response rating, Crabgrass ([13]; Rate 62 g/ha, scale 0 to 100): 60
- Plant response rating, Crabgrass [13, 23]: 60
- Plant response rating, Crabgrass [13, 24]: 70
- Plant response rating, Foxtail, Giant [14, 23]: 80
- Plant response rating, Goosegrass ([15]; Rate 62 g/ha, scale 0 to 100): 20
- Plant response rating, Goosegrass [15, 23]: 50
- Plant response rating, Goosegrass [15, 24]: 70
- Plant response rating, Kochia (kochia (Kochia scoparia); Rate 62 g/ha, scale 0 to 100): 10
- Plant response rating, Kochia (kochia (Kochia scoparia); [23]): 80
- Plant response rating, Kochia (kochia (Kochia scoparia); [24]): 90
- Plant response rating, Morningglory ([16]; Rate 62 g/ha, scale 0 to 100): 70
- Plant response rating, Morningglory [16, 24]: 100
- Plant response rating, Pigweed ([17]; Rate 62 g/ha, scale 0 to 100): 70
- Plant response rating, Pigweed [17, 23]: 70
- Plant response rating, Pigweed [17, 24]: 100
- Plant response rating, Soybean (soybean (Glycine max); Rate 62 g/ha, scale 0 to 100): 90
- Plant response rating, Soybean (soybean (Glycine max); [23]): 100
- Plant response rating, Soybean (soybean (Glycine max); [24]): 100
- Plant response rating, Velvetleaf ([18]; Rate 62 g/ha, scale 0 to 100): 50
- Plant response rating, Velvetleaf [18, 23]: 50
- Plant response rating, Velvetleaf [18, 24]: 80
- Plant response rating, Velvetleaf ([18]; scale 0 to 100): 50
- Plant response rating, Nutsedge ([19]; Rate 62 g/ha, scale 0 to 100): 0
- Plant response rating, Nutsedge [19, 23]: 0
- Plant response rating, Nutsedge [19, 24]: 0
- Plant response rating (0 to 100), Nightshade (Nightshade): 100
